By IC50 is commonly meant the concentration that inhibits the measured activity by half.

In US7902373B2 (Pfizer Inc, priority 2006, dated 2011) one finds IC50 data, which are given here for 15 compounds.

Each structure is given as a SMILES string.

The target of this experiment is human recombinant H-PGDS (Homo sapiens, UniProt O60760). Put plainly: Fluorescence intensity h-PGDS TBA enzyme assay. It is filed as biochemical. Particulars: Examples up to 622 (and 3a, 3b).
Sequence of human recombinant H-PGDS (O60760 whole entry): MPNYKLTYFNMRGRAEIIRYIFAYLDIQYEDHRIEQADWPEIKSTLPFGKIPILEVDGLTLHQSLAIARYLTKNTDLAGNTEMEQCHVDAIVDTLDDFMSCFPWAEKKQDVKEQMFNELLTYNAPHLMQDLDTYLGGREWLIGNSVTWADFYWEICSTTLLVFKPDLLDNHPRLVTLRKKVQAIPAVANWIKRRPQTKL
For `COc1cc(CN2CCC(NC(=O)c3ccc(-c4cccc(F)c4)nc3)CC2)ccc1OC(C)C` [Example 184, 6-(3-Fluorophenyl)-N-[1-(4-isopropoxy-3-methoxybenzyl)piperidin-4-yl]nicotinamide], the IC50 was 3.67 nM. The result for `CCn1cc(CN2CCC(NC(=O)c3ccc(-c4cccc(F)c4)nc3)CC2)cn1` [Example 185, N-{1-[(1-Ethyl-1H-pyrazol-4-yl)methyl]piperidin-4-yl}-6-(3-fluorophenyl)nicotinamide] reads 11 nM; that for `O=C(NC1CCN(CC2CCC=CO2)CC1)c1ccc(-c2cccc(F)c2)nc1` (stereo not drawn) [Example 186, N-[1-(3,4-Dihydro-2H-pyran-2-ylmethyl)piperidin-4-yl]-6-(3-fluorophenyl)nicotinamide], 1.79 nM. The result for `O=C(NC1CCN(Cc2c[nH]nc2-c2ccc(F)cc2)CC1)c1ccc(-c2cccc(F)c2)nc1` [Example 187, 6-(3-Fluorophenyl)-N-(1-{[3-(4-fluorophenyl)-1H-pyrazol-4-yl]methyl}piperidin-4-yl)nicotinamide] reads 2.59 nM; that for `O=C(NC1CCN(Cc2cccc(-c3ccccn3)c2)CC1)c1ccc(-c2cccc(F)c2)nc1` [Example 188, 6-(3-Fluorophenyl)-N-[1-(3-pyridin-2-ylbenzyl)piperidin-4-yl]nicotinamide], 2.25 nM. The result for `O=C(NC1CCN(Cc2ccnc3ccccc23)CC1)c1ccc(-c2cccc(F)c2)nc1` [Example 189, 6-(3-Fluorophenyl)-N-[1-(quinolin-4-ylmethyl)piperidin-4-yl]nicotinamide] reads 0.502 nM; that for `O=C(NC1CCN(Cc2c[nH]cn2)CC1)c1ccc(-c2cccc(F)c2)nc1` [Example 190, 6-(3-Fluorophenyl)-N-[1-(1H-imidazol-5-ylmethyl)piperidin-4-yl]nicotinamide], 1.83 nM. Consider `Cn1cc(Cl)c(CN2CCC(NC(=O)c3ccc(-c4cccc(F)c4)nc3)CC2)n1` [Example 191, N-{1-[(4-Chloro-1-methyl-1H-pyrazol-3-yl)methyl]piperidin-4-yl}-6-(3-fluorophenyl)nicotinamide], for which the IC50 amounted to 0.171 nM. Regarding `COc1cc(CN2CCC(NC(=O)c3ccc(-c4cccc(F)c4)nc3)CC2)ccc1F` [Example 192, N-[1-(4-Fluoro-3-methoxybenzyl)piperidin-4-yl]-6-(3-fluorophenyl)nicotinamide], the IC50 is 0.701 nM.

As for `O=C(NC1CCN(Cc2ccc(F)c(F)c2)CC1)c1ccc(-c2cccc(F)c2)nc1` [Example 193, N-[1-(3,4-difluorobenzyl)piperidin-4-yl]-6-(3-fluorophenyl)nicotinamide], the IC50 was 0.768 nM. With `O=C(CN1CCC(NC(=O)c2ccc(-c3cccc(F)c3)nc2)CC1)c1ccccc1` [Example 194, 6-(3-Fluorophenyl)-N-[1-(2-oxo-2-phenylethyl)piperidin-4-yl]nicotinamide], the IC50 is 3.5 nM. Regarding `Cn1nc(-c2ccccc2)c(CN2CCC(NC(=O)c3ccc(-c4cccc(F)c4)nc3)CC2)c1Cl` [Example 195, N-{1-[(5-Chloro-1-methyl-3-phenyl-1H-pyrazol-4-yl)methyl]piperidin-4-yl}-6-(3-fluorophenyl)nicotinamide], the IC50 was 0.194 nM. Consider `Cn1cc(CN2CCC(NC(=O)c3ccc(-c4cccc(F)c4)nc3)CC2)cn1` [Example 196, 6-(3-Fluorophenyl)-N-{1-[(1-methyl-1H-pyrazol-4-yl)methyl]piperidin-4-yl}nicotinamide], for which the IC50 was determined as 1.35 nM. Consider `O=C(NC1CCN(Cc2cccc3cccnc23)CC1)c1ccc(-c2cccc(F)c2)nc1` [Example 197, 6-(3-Fluorophenyl)-N-[1-(quinolin-8-ylmethyl)piperidin-4-yl]nicotinamide], for which the IC50 turned out to be 0.578 nM.

For the compound `O=C(NC1CCN(Cc2cccc(-c3cnccn3)c2)CC1)c1ccc(-c2cccc(F)c2)nc1` [Example 198, 6-(3-Fluorophenyl)-N-[1-(3-pyrazin-2-ylbenzyl)piperidin-4-yl]nicotinamide], the IC50 is 1.04 nM.
